Experimental data as given in US6630124B1, “Combination therapy with VIP antagonist” (Ramot-University Authority for Applied Research and …, priority 1998, dated 2003).
Where a SMILES comes first, the peptide text is derived from it. [ ]: non-standard residue; d: D form. The star is where a group is joined. Stearoyl = CCCCCCCCCCCCCCCCCC(=O)*; Nle = CCCC[C@H](N)C(=O)O

How the values were obtained:
Type in all cases: cell-based
U-87 cells = experiment: U-87 colony formation in soft agar; conditions: in vitro
Text: The effects of VIP receptor antagonists on glioblastoma cell lines were investigated.

HT-29 human colon cancer = experiment: MTS cell proliferation assay, SNH and chemotherapy; conditions: HT-29, 4 hour treatment with SNH followed by a 24 hour treatment (FIG. 11)
Procedure: NCI-H727 and LNCaP were grown in RPMI 1640 medium supplemented with 10% heat inactivated FCS, L-glutamine and antibiotics. HT-29 and CT-26 were grown in DMEM medium supplemented with 10% heat-inactivated FCS (fetal calf serum), L-glutamine and antibiotics. The cells were cultured in 5% CO2/95% air at […] and used during their exponential growth phase. Routinely, the cells which are adherent, were split when a subconfluent monolayer was formed. In different experiments, various concentration of FCS were used. For growth inhibition experiments, subconfluent adherent cells were washed with PBS and treated with trypsin/versene. The cells were pelleted and resuspended in medium to a final concentration of 75,000 cells/mL for NCI-H727. 50,000 cells/mL for LNCaP and HT-29 and 25000 cells/mL for CT-26. These different concentrations were used in order to avoid confluence in the wells at the end of the experiment and correspond to the different doubling times of the cell lines. […] On day 4, viable cell number was determined by a modified MTT assay i.e., MTS non-radioactive cell proliferation assay (Promega). […] Results were finally expressed as percentage of the control, which was obtained from the samples with no drug treatment. Dose-response curves were plotted using a Sigma-Plot software and statistically analyzed using Student test. […] On day 4 the number of viable cells was determined by MTS assay.

[1] = test system: NCI-H727 non-small cell lung cancer (carcinoid); experiment: MTS cell proliferation assay, SNH and chemotherapy; conditions: 8 μM SNH, 6 hour incubation, then 66 hour fresh medium
Procedure: NCI-H727 and LNCaP were grown in RPMI 1640 medium supplemented with 10% heat inactivated FCS, L-glutamine and antibiotics. HT-29 and CT-26 were grown in DMEM medium supplemented with 10% heat-inactivated FCS (fetal calf serum), L-glutamine and antibiotics. The cells were cultured in 5% CO2/95% air at […] and used during their exponential growth phase. Routinely, the cells which are adherent, were split when a subconfluent monolayer was formed. In different experiments, various concentration of FCS were used. For growth inhibition experiments, subconfluent adherent cells were washed with PBS and treated with trypsin/versene. The cells were pelleted and resuspended in medium to a final concentration of 75,000 cells/mL for NCI-H727. 50,000 cells/mL for LNCaP and HT-29 and 25000 cells/mL for CT-26. These different concentrations were used in order to avoid confluence in the wells at the end of the experiment and correspond to the different doubling times of the cell lines. On day 0, cells suspensions […] were dispensed using a multi-channel pipet into the individual wells of a 96-well tissue culture plate (Nuncion, Nunc Brand Products). […] Cells were incubated for 24 hours in a humidified atmosphere of 95% air/5% CO2 at 37° C. before treatment. On day 1, the cells were treated with different drugs and schedules and maintained under the same conditions. On day 4, viable cell number was determined by a modified MTT assay i.e., MTS non-radioactive cell proliferation assay (Promega). […] Results were finally expressed as percentage of the control, which was obtained from the samples with no drug treatment. Dose-response curves were plotted using a Sigma-Plot software and statistically analyzed using Student test. To determine the effect of the lipophilic VIP antagonist SNH on cell proliferation, cells plated in 96-well microplates for 24 hours as described, were treated with various concentrations of SNH. The peptide was diluted in PBS and […] of the peptide solution was added to each well for a final concentration of the peptide between 10^−510^−9 M. The solvent was added to the control wells. […] A dose-response curve was obtained at concentrations ranging from 2 μM-10 μM (see, FIG. 2). […] The effects of an 8 hours treatment were slightly less, showing that most of the effect is in the initial hours of exposure and much more dose than time dependent. […] For the experiments with the combinations of VIP antagonists and chemotherapeutic agents, on day 0, the cells were plated for 24 hours in medium supplemented with 5% FCS. On day 1, the peptide was added to the wells followed 1 hour later by the chemotherapeutic agents. […] The chemotherapeutic drugs were tested over 7 concentrations, covering as much as possible of the dose response curve of each individual drug. 24 hours later, the medium was exchanged and the cells incubated under the same conditions for another 48 hours. On day 4 the number of viable cells was determined by MTS assay.

[2] = test system: MCF-7 breast cancer cells; experiment: MTT assay, Taxol with or without SNVIPhyb; conditions: 10 μM SNVIPhyb, MTT assay
Text: The ability of SNVIPhyb to inhibit cancer growth was investigated.

**Q.** For CCCCCCCCCCCCCCCCCC(=O)N[C@@H](CCCCN)C(=O)N1CCC[C@H]1C(=O)N[C@@H](CCCNC(=N)N)C(=O)N[C@@H](CCCNC(=N)N)C(=O)N1CCC[C@H]1C(=O)N[C@@H](Cc1ccc(O)cc1)C(=O)N[C@H](C(=O)N[C@@H](CC(=O)O)C(=O)N[C@@H](CC(N)=O)C(=O)N[C@@H](Cc1ccc(O)cc1)C(=O)N[C@H](C(=O)N[C@@H](CCCNC(=N)N)C(=O)N[C@@H](CC(C)C)C(=O)N[C@@H](CCCNC(=N)N)C(=O)N[C@@H](CCCCN)C(=O)N[C@@H](CCC(N)=O)C(=O)N[C@@H](CCCC)C(=O)N[C@@H](C)C(=O)N[C@H](C(=O)N[C@@H](CCCCN)C(=O)N[C@@H](CCCCN)C(=O)N[C@@H](Cc1ccc(O)cc1)C(=O)N[C@@H](CC(C)C)C(=O)N[C@@H](CC(N)=O)C(=O)N[C@@H](CO)C(=O)N[C@H](C(=O)N[C@@H](CC(C)C)C(=O)N[C@@H](CC(N)=O)C(N)=O)[C@@H](C)CC)C(C)C)[C@@H](C)O)[C@@H](C)O [SNH] (Stearoyl-KPRRPYTDNYTRLRKQ[Nle]AVKKYLNSILN-NH2), which “relative potency at inhibiting U-87 colony formation” value (U-87 cells) is on record?
**A.** more potent than VIP hybrid

**Q.** And the “effect of the combination with a different schedule” value (HT-29 human colon cancer)?
**A.** also effective

**Q.** And the “reduction in viable cells” value [1]?
**A.** 40%

**Q.** What about the “effect on MCF-7 breast cancer proliferation” value [2] of the same compound?
**A.** little effect
